Results as given in US8367720B2 (Panorama Research Inc., priority 2007, dated 2013).
Like-named read-outs stand apart in the source and are kept apart here.

How the values were obtained:
Pseudomonas aeruginosa [1] = experiment: Measurement of growth curve of Pseudomonas aeruginosa; assay type: cell-based; details: 1 mM (FIG. 2)
Description: Pseudomonas aeruginosa was inoculated in LB medium, and cultured at a constant temperature of 37° C. in a shaker overnight.

[2] = system: Staphylococcus aureus wild type; experiment: Test of minimal inhibitory concentration (MIC); assay type: cell-based; details: two-fold dilution, 37° C., 24 h, absorbance 595 nm
Pseudomonas aeruginosa [3] = experiment: Atomic force microscope (AFM) experiment; assay type: cell-based; details: 1 mM, 15 h contact (FIG. 5)
Description: Pseudomonas aeruginosa was inoculated in LB liquid, shaken and cultured at a constant temperature of 37° C. overnight, and the bacterial liquid was centrifuged, washed with sterile physiological saline twice, and mixed with physiological saline to form a bacterial suspension having a turbidity of 0.5 McFarland Standard (bacterial number was about 5×10^8-9 CFU/mL). The bacterial suspension was diluted with physiological saline 50-times. […] After contacting with medicines for 15 h, 1 mL culture solution was added in a sterile centrifuge tube and centrifuged at 10,000×g for 5 min. The supernatant liquid was discarded, and the obtained bacterial sample was washed with double distilled water twice, and suspended in double distilled water. A small volume of Pseudomonas aeruginosa suspension was taken and dropped on a cover slip carefully. After water was dried under atmospheric condition, the bacteria were observed by CP-Research type atom force microscope (U.S.A., Thermomicroscopes Co.) ([…] et al., Antimicro. Chemother. 1994, 34, 679-685; […] et al., Antimicro. Agents Chemother. 2000, 44, 682-687; Nickel et al., Urology 1986, 135, 586-588).

[4] = system: BF of Pseudomonas aeruginosa; experiment: Scanning electron microscopy (SEM) experiment, biofilm (BF) formation; assay type: cell-based; details: 1 mM; early BF 3rd day, mature BF 7th day (FIG. 6, 7)
Description: Pseudomonas aeruginosa was inoculated in LB liquid, and cultured at a constant temperature of 37° C. in a shaker overnight, and the bacterial liquid was centrifuged, washed with sterile physiological saline twice, and mixed with physiological saline to form a bacterial suspension having a turbidity of 0.5 McFarland Standard (bacterial number was about 5×10^8-9 CFU/mL). The bacterial suspension was diluted with physiological saline 50-times. A biofilm (BF) carrier was placed in a tube containing 2 mL of the bacterial liquid, and the culturing was conducted at 37° C. […] Medium was replaced every other two days. The formation of BF was observed by using Quanta 400 thermal field emission scanning electron microscope (FEI Company). The carrier adhered with BF was washed with sterile physiological saline to remove floating bacteria, fixed with 2.5% glutaral, immersed in pH 7.4 PBS for three times, dewatered in turn with 50%, 70%, 80% and 90% ethanol once, then dewatered with 100% ethanol twice and with tert-butanol twice, 5 min for each time, and lyophilized for 5 h. The surface of carrier was plated with gold under vacuum.

L1210 leukemia cells = experiment: In vitro antitumor activity to L1210 leukemia cells (MTT); assay type: cell-based; details: for IC50: Mus musculus
Description: The cells were cultured in an incubator at 37° C., 5% CO2 and saturated humidity for 48 h. Then 5 mg/mL MTT (20 μL/well) was added and cultured at the same conditions for 4 h, DMSO (150 μL/well) was added, and the (570/630 nm) absorbance (A values) was measured by using micro-plate reader.

[5] = system: extracellular protease of Pseudomonas aeruginosa; experiment: Measurement of extracellular protease; assay type: cell-based; details: azo-casein, A440; Andro, AL-1 1 mM; Chuanhuning, Yanhuning, Lianbizhi 10 mM (FIG. 4)
Description: Pseudomonas aeruginosa was inoculated in LB liquid, and cultured at a constant temperature of 37° C. in a shaker overnight. […] After the bacterial liquids were cultured simultaneously at 37° C. for 6 h and centrifuged, supernatant 100 μL was taken, azo-casein 5 mg was added, […] and CaCl2 10 mM were added, and then they were shaken for reaction at 37° C. for 6 h, and the reaction was terminated by adding EDTA-Na. The A440 values of the supernatants were measured (Zielinshi et al., Biol. Chem. 1991, 266, 9754-9763; May et al., Clin. Microbiology Rev. 1991, 4, 191-206).

MRSA5676 = experiment: Test of minimal inhibitory concentration (MIC); assay type: cell-based, Staphylococcus aureus; details: two-fold dilution, 37° C., 24 h, absorbance 595 nm
[6] = system: rats with STZ-induced diabetes mellitus; experiment: Therapeutical effects on STZ-induced diabetes mellitus in rats
Description: 30 Female SD rats, 180-220 g, fasted for 16 h, were subjected to intraperitoneal injection of 60 mg/kg of STZ (purchased from Sigma Company). After 72 h, blood samples were collected from the rats by cutting their tails after fasting 16 h, and blood glucose values were measured by using a blood glucose analyzer (Johnson & Johnson Company). […] Animals were weighed, orbital bleeded, and the sera were separated. According to the instructions of kit (Zhejiang Dongou Biotechnology Co., Ltd.), the contents of triglyceride and total cholesterol were measured. […] The rats of vehicle group were treated with an equivalent volume of solvent (20% DMSO in H2O). After being fasted for 16 h, the rats were weighed, and bleeded for the measurement of blood glucose, triglyceride and total cholesterol. The obtained data were processed by using one-factor analysis of variance (One-way ANOVA) followed by Student's t-test.

L1210 cells = assay type: cell-based; details: 10 μM, after 12 h
Description: The cells were cultured in an incubator at 37° C., 5% CO2 and saturated humidity. The culture medium was removed, the cells were washed with PBS twice, fixed at −20° C. overnight. Then the cells were centrifuged again, washed with PBS to remove ethanol, cultured with RNase A (200 μg/mL, Sigma) at 37° C. for 1 h, stained with PI (50 μg/mL, Sigma) in dark for 30 min, and detected by using a flow cytometer.

[7] = system: secretion of pyocyanin by Pseudomonas aeruginosa; experiment: Measurement of pyocyanin; assay type: cell-based; details: 18 h culture, A520; Andro, AL-1 1 mM; Chuanhuning, Yanhuning, Lianbizhi 10 mM (FIG. 3)
Description: Pseudomonas aeruginosa was inoculated in LB medium, then cultured at a constant temperature of 37° C. in a shaker overnight. […] The supernatant was taken and extracted in turn with chloroform and 0.2 N HCl, and A520 values were measured (Zielinshi et al., Biol. Chem. 1991, 266, 9754-9763; May et al., Clin. Microbiology Rev. 1991, 4, 191-206).

[8] = system: suspended Pseudomonas aeruginosa; experiment: Experiment of combination with antibiotics; assay type: cell-based; details: Pseudomonas aeruginosa cultured 15 h, OD600; ciprofloxacin 0.017 μg/mL, erythromycin 3.75 μg/mL, Andro 350 μg/mL, AL-1 538 μg/mL (1 μmol/mL)
MRSA5677 = experiment: Test of minimal inhibitory concentration (MIC); assay type: cell-based, Staphylococcus aureus; details: two-fold dilution, 37° C., 24 h, absorbance 595 nm
Bacillus subtilis = experiment: Inhibition zone test (holing method); assay type: cell-based; details: 37° C., 24 h; compounds 0.05 mg/well, streptomycin 0.15 mg/well
Description: (§1) After being cultured at 37° C. for 24 h, the sizes of inhibition zones were measured.

[9] = system: Staphylococcus aureus wild type; experiment: Inhibition zone test (holing method); assay type: cell-based; details: 37° C., 24 h; compounds 0.05 mg/well, streptomycin 0.15 mg/well
Description: as §1

[10] = system: Staphylococcus aureus MRSA 5676; experiment: Inhibition zone test (holing method); assay type: cell-based; details: 37° C., 24 h; compounds 0.05 mg/well, vancomycin 0.15 mg/well
Description: as §1

Candida albicans = experiment: Inhibition zone test (holing method); assay type: cell-based; details: 37° C., 24 h; compounds 0.05 mg/well, nysfungin 0.10 mg/well
Description: as §1

E. coli = experiment: Inhibition zone test (holing method); assay type: cell-based; details: 37° C., 24 h; compounds 0.05 mg/well, gentamicin 0.10 mg/well
Description: as §1

Pseudomonas aeruginosa [11] = experiment: Inhibition zone test (holing method); assay type: cell-based; details: 37° C., 24 h; compounds 0.05 mg/well, gentamicin 0.10 mg/well
Description: as §1

[12] = system: Staphylococcus aureus MRSA 5677; experiment: Inhibition zone test (holing method); assay type: cell-based; details: 37° C., 24 h; compounds 0.05 mg/well, vancomycin 0.15 mg/well
Description: as §1

B16F0 melanoma = details: orally 200 mg/kg, twice per day; cited from earlier work
HT-29 human colon cancer = details: orally 200 mg/kg, twice per day; cited from earlier work
MCF-7 breast cancer = details: 100 mg/kg, mice, hollow fiber system; cited from earlier work
macrophages = details: read-out: IC50, inhibition of cell division (C5α induced, macrophages); cited from earlier work

Row | Compound | inhibition of the growth of Pseudomonas aeruginosa (growth curve, A600) (Pseudomonas aeruginosa [1]) | inhibition of the production/activity of extracellular protease [5] | inhibition of the secretion of pyocyanin [7] | Inhibition zone diameter, Bacillus Subtilis (Bacillus subtilis) | Inhibition zone diameter, Staphylococcus aureus Wild type [9] | Inhibition zone diameter, Staphylococcus aureus MRSA 5676 [10] | Inhibition zone diameter, Candida albicans (Candida albicans) | Inhibition zone diameter, E. coli (E. coli) | Inhibition zone diameter, Pseudomonas aeruginosa (Pseudomonas aeruginosa [11]) | Inhibition zone diameter, Staphylococcus aureus MRSA 5677 [12] | also measured
1 | C=C1CCC2[C@](C)(CO)[C@H](O)CC[C@@]2(C)[C@@H]1C/C=C1/C(=O)OCC1OC(=O)CCCCC1CCSS1 (stereo partly drawn) [AL-1, 14-lipoyl-3,19-dihydroxy-andrographolide] | significantly inhibited the growth of bacteria | AL-1>ANO>Andro | AL-1>Andro>ANO | ^b (incompetence (inhibition zone diameter <4 mm)) | 4.9 ± 0.81 mm | 6.9 ± 0.80 mm | ^b (incompetence (inhibition zone diameter <4 mm)) | ^b (incompetence (inhibition zone diameter <4 mm)) | ^b (incompetence (inhibition zone diameter <4 mm)) | 4.1 ± 0.77 mm | MIC, Wild type [2]: 1000; growth morphology of Pseudomonas aeruginosa under AFM (Pseudomonas aeruginosa [3]): did not form a confertim bacterial colony; formation of early and mature BF of Pseudomonas aeruginosa under SEM [4]: able to destroy the BF of Pseudomonas aeruginosa; cytotoxicity relative to andrographolide (L1210 leukemia cells; L1210 cells): 3 times; IC50 (L1210 leukemia cells; L1210 cells, 48 h, MTT, read-out: IC50): 8.04 ± 1.92 µM; MIC, MRSA5676 (MRSA5676): 1000; reduction of blood glucose level ([6]; AL-1 160 mg/kg, 7 days): about 66%; Blood glucose ([6]; Day 0, before treatment): 19.53 ± 1.90 mmol/L; Body weight ([6]; Day 0, before treatment): 214.33 ± 9.81 g; Total cholesterol ([6]; Day 0, before treatment): 3.39 ± 0.59 mmol/L; Total triglyceride ([6]; Day 0, before treatment): 6.28 ± 0.78 mmol/L; effect on cell cycle / apoptosis of L1210 cells (L1210 cells): arrest L1210 cells at G1 prophase; Survival Rate [8]: 84%; MIC, MRSA5677 (MRSA5677): 1000
2 | C=C1CCC2[C@@](C)(CC[C@@H](O)[C@@]2(C)CO)C1C/C=C1/C(=O)OCC1O (stereo partly drawn) [Andro, Andrographolide] | weak antibacterial activity | AL-1>ANO>Andro | AL-1>Andro>ANO | ^b (incompetence (inhibition zone diameter <4 mm)) | ^b (incompetence (inhibition zone diameter <4 mm)) | ^b (incompetence (inhibition zone diameter <4 mm)) | ^b (incompetence (inhibition zone diameter <4 mm)) | ^b (incompetence (inhibition zone diameter <4 mm)) | ^b (incompetence (inhibition zone diameter <4 mm)) | ^b (incompetence (inhibition zone diameter <4 mm)) | inhibition of growth of melanoma (B16F0 melanoma): 39%; inhibition of growth of colon cancer (HT-29 human colon cancer): 52%; IC50 (L1210 leukemia cells; L1210, 48 h): 28.7 ± 6.19 µM; inhibition of growth (MCF-7 breast cancer): about 50%; IC50 (macrophages): 5.6 ± 0.7 µM
